What all share (format): biochemical
For one experiment, the target named is T1, CYP1A2 (Homo sapiens, UniProt P05177).
T1 construct: 0.1 mg/mL protein human liver microsomes (BD Gentest); tissue BD Gentest; host or cells: human liver microsomes
T1 sequence (P05177 1-516): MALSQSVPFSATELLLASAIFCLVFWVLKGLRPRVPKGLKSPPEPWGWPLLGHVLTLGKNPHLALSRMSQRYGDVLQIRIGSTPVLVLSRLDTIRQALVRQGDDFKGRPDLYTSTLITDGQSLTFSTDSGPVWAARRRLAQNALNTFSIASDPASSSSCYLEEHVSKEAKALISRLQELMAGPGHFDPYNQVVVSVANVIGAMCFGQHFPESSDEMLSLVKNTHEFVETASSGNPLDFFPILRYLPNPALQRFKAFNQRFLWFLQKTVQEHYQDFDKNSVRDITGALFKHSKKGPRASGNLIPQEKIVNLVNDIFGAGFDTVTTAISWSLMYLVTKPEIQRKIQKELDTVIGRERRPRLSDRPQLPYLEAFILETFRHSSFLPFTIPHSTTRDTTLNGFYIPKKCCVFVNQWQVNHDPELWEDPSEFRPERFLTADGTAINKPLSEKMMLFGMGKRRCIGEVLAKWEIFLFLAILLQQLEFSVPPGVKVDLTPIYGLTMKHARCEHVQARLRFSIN
As to the kind of experiment: Cocktail assay for CYPs in human liver microsomes: CYP1A2 (phenacetin O-deethylation). To be noted: human liver microsomes 0.1 mg/mL, 10 μM phenacetin, 10 min at 37° C., 6 concentrations up to 10 μM; read-out: IC50 (nM) CYP1A2. (Microsomes from liver hold many membrane-bound enzymes, among them those of drug oxidation.)

For the next experiment, the target named is T2, CYP3A4 (Homo sapiens, UniProt P08684).
T2 construct: 0.1 mg/mL protein human liver microsomes (BD Gentest); tissue BD Gentest; host or cells: human liver microsomes
As to the kind of experiment: Cocktail assay for CYPs in human liver microsomes: CYP3A4 (midazolam 1′-hydroxylation). To be noted: human liver microsomes 0.1 mg/mL, 2 μM midazolam, 10 min at 37° C., 6 concentrations up to 10 μM; read-out: IC50 (nM) CYP3A4.

For a further experiment, the target named is T3, CYP2C19 (Homo sapiens, UniProt P33261).
T3 construct: 0.1 mg/mL protein human liver microsomes (BD Gentest); tissue BD Gentest; host or cells: human liver microsomes
As to the kind of experiment: Cocktail assay for CYPs in human liver microsomes: CYP2C19 (mephenytoin 4′-hydroxylation). The settings on record: human liver microsomes 0.1 mg/mL, 30 μM mephenytoin, 10 min at 37° C., 6 concentrations up to 10 μM; read-out: IC50 (nM) CYP2C19.

The target in another experiment is T4, CYP2C9 (Homo sapiens, UniProt P11712).
T4 construct: 0.1 mg/mL protein human liver microsomes (BD Gentest); tissue BD Gentest; host or cells: human liver microsomes
As to the kind of experiment: Cocktail assay for CYPs in human liver microsomes: CYP2C9 (diclofenac 4′-hydroxylation). To be noted: human liver microsomes 0.1 mg/mL, 5 μM diclofenac, 10 min at 37° C., 6 concentrations up to 10 μM; read-out: IC50 (nM) CYP2C9.

A further experiment concerns the target T5, CYP2D6 (Homo sapiens, UniProt P10635).
T5 construct: 0.1 mg/mL protein human liver microsomes (BD Gentest); tissue BD Gentest; host or cells: human liver microsomes
The experiment can be described thus: Cocktail assay for CYPs in human liver microsomes: CYP2D6 (dextromethorphan O-demethylation). The settings on record: human liver microsomes 0.1 mg/mL, 5 μM dextromethorphan, 10 min at 37° C., 6 concentrations up to 10 μM; read-out: IC50 (nM) CYP2D6.

T5 sequence (P10635 whole entry): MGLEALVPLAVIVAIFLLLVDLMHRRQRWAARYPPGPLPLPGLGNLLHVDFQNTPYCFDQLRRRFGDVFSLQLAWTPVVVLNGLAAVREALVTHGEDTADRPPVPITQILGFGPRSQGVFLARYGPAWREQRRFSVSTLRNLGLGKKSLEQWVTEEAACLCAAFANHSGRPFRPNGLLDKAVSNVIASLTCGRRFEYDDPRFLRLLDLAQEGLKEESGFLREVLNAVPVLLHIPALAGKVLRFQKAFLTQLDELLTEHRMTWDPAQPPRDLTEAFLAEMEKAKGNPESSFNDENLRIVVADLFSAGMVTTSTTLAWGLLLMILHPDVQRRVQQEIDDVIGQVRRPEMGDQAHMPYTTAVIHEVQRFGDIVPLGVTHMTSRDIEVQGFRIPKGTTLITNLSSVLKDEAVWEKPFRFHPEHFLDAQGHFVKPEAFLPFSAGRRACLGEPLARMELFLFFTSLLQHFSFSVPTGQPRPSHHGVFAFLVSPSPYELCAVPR
T4 sequence (P11712 whole entry): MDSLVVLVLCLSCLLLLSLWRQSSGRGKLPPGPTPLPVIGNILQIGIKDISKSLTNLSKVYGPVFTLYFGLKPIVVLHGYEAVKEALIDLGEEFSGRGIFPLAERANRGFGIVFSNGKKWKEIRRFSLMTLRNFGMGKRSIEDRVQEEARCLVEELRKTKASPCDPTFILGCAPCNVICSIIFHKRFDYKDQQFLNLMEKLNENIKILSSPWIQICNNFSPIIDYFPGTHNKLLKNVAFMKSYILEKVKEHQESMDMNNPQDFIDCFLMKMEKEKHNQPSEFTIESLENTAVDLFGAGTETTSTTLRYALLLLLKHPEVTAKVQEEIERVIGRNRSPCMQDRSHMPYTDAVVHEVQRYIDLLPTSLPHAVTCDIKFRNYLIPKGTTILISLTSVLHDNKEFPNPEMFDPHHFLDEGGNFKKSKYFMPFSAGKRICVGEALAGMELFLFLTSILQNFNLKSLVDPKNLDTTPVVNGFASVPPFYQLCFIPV
T2 sequence (P08684 whole entry): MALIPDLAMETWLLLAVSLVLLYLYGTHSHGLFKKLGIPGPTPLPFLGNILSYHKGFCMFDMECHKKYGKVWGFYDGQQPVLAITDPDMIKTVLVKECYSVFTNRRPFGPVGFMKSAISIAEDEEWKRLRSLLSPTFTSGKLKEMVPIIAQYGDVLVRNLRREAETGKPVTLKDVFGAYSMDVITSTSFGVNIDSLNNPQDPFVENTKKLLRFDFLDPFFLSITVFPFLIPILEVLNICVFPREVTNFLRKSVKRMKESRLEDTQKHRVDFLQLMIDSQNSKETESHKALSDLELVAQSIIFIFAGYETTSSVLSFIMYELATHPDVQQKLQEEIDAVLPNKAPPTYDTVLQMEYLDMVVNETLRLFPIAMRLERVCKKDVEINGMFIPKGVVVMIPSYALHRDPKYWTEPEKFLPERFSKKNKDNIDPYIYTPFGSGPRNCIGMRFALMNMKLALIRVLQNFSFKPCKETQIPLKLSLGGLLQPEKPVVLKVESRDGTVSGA
T3 sequence (P33261 whole entry): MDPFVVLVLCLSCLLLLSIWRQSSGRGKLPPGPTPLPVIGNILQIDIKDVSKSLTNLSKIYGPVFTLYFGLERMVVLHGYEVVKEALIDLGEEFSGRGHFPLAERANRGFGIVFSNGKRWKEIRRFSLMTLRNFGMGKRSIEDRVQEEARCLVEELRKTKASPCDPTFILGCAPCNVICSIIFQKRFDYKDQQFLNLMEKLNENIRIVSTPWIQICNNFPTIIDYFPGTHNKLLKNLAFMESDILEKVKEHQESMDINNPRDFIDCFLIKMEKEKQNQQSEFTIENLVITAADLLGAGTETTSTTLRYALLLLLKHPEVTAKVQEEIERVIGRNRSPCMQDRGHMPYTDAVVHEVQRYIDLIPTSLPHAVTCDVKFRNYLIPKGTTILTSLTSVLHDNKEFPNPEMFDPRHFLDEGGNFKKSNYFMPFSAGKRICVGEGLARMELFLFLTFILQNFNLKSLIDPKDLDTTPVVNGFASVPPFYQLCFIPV
Description for CYP1A2: (§1) Determination of IC50 in a Cocktail Assay for CYPs 1A2, 2C9, 2C19, 2D6 and 3A4
(§2) This assay was performed in a standard 96-well plate design. […] The incubation substrate mix contains 10 μM phenacetin (1A2), 5 μM diclofenac (2C9), 30 μM mephenytoin (2C19), 5 μM dextromethorphan (2D6) and 2 μM midazolam (3A4), 0.1 mg/mL protein human liver microsomes (BD Gentest), 1 mM NAPDH, 3.3 mM MgCl2 and 100 mM potassium phosphate buffer (pH 7.4). The production of the metabolite of each probe substrate was determined after incubation for 10 min at 37° C. Quantitation of the metabolite peak area ratio against an internal standard (tolbutamide) was determined by LC/MS/MS analysis following acetonitrile treatment of the incubations.
(§3) Samples were analyzed in the MRM mode with a SCIEX API-4000 mass spectrometer (Applied Biosystems, Foster City, Calif.), with a Shimadzu LC-20 AD pump (Shimadzu corporation, Kyoto, JP) and a CTC PAL autosampler (Agilent Technologies, Switzerland). A Phenomenex, Luna, 5 μm, 100 A, 2.00×30 mm HPLC column was used for the separation. The mobile phases were: (A) 0.1% formic acid in water and (B) 0.1% formic acid in acetonitrile. The binary gradient was as follows.
(§4) The mass spectrum parameters were as follows:
(§5) The LC/MS/MS parameters for the analytes were as follows.
(§6) The peak area ratio of the analyte to the internal standard was used to quantify the metabolite. The values of peak area ratios in the presence of test compound were compared to those of maximum or minimum controls and were expressed as % inhibition by interpolating between the maximum and minimum peak area ratios. Incubations with no inhibitor were defined as the maxima.
(§7) The following equation was used to calculate the % inhibition: [1−[(X−Low control)/(High control−Low control)]]*100
(§8) For the IC50 calculation, SigmaPlot was used to plot the mean % inhibition versus the test compound concentrations and for non-linear regression analysis of the data. Depending on the range of data points defining the inhibition curve, the data may have been fit to the 4-parameter logistic equation.
Description for CYP2C19: as §1, §2, §3, §4, §5, §6, §7, §8
Description for CYP2C9: as §1, §2, §3, §4, §5, §6, §7, §8
Description for CYP2D6: as §1, §2, §3, §4, §5, §6, §7, §8

What is called IC50 is the concentration that gives 50% inhibition. In the case of `C[C@H](c1ccc(C#N)cc1)n1cncc1CN1CCN(c2nc3ccc(F)cc3o2)CC1` [Compound 30, (R)-4-(1-(5-((4-(6-fluorobenzo[d]oxazol-2-yl)piperazin-1-yl)methyl)-1H-imidazol-1-yl)ethyl)benzonitrile], the IC50 on CYP1A2 was greater than 10000 nM; on CYP3A4, 7 nM; at CYP2C19, 8400 nM; at CYP2C9, 5550 nM; on CYP2D6 it was 1620 nM.

As to `C[C@H](c1ccc(C#N)cc1)n1cncc1CN1CCN(c2nc3ccc(F)c(F)c3o2)CC1` [Compound 31, (R)-4-(1-(5-((4-(6,7-difluorobenzo[d]oxazol-2-yl)piperazin-1-yl)methyl)-1H-imidazol-1-yl)ethyl) benzonitrile], the concentration for half-maximal inhibition (IC50) is greater than 10000 nM at CYP1A2; 7 nM on CYP3A4; 3740 nM at CYP2C19; 2320 nM on CYP2C9; 2870 nM at CYP2D6.

On to `CC(C1CCOCC1)n1cncc1CN1CCN(c2nc3ccccc3o2)CC1` (centres unmarked) [Compound 32, 2-(4-((1-(1-(tetra-hydro-2H-pyran-4-yl)ethyl)-1H-imidazol-5-yl)methyl)piperazin-1-yl)benzo[d] oxazole], for which the IC50 is greater than 10000 nM on CYP1A2; 24 nM on CYP3A4; greater than 10000 nM on CYP2C19; greater than 10000 nM on CYP2C9; greater than 10000 nM on CYP2D6.

As to `c1ccc(CCn2cncc2CN2CCN(c3nc4ccccc4o3)CC2)nc1` [Compound 33, 2-(4-((1-(2-(pyridin-2-yl)ethyl)-1H-imidazol-5-yl)methyl)piperazin-1-yl)benzo[d] oxazole], the IC50 on CYP1A2 was greater than 10000 nM; at CYP3A4, 35 nM; on CYP2C19, no less than 10000 nM; on CYP2C9, 6520 nM; on CYP2D6, 2090 nM.

On to `CC(c1ccc(S(C)(=O)=O)cc1)n1cncc1CN1CCN(c2nc3ccccc3o2)CC1` (centres unmarked) [Compound 34, 2-(4-((1-(1-(4-(methylsulfonyl)phenyl)ethyl)-1H-imidazol-5-yl)methyl)piperazin-1-yl)benzo [d]oxazole], for which the IC50 was greater than 10000 nM at CYP1A2; 8 nM on CYP3A4; no less than 10000 nM at CYP2C19; no less than 10000 nM on CYP2C9; 2520 nM at CYP2D6.

`CC(C1CCOCC1)n1cncc1CN1CCN(c2nc3ccc(F)c(F)c3o2)CC1` (centres unmarked) [Compound 35, 6,7-difluoro-2-(4-((1-(1-(tetrahydro-2H-pyran-4-yl)ethyl)-1H-imidazol-5-yl)methyl)piperazin-1-yl) benzo[d]oxazole]: the 50% inhibitory concentration (IC50) on CYP1A2 is greater than 10000 nM; at CYP3A4 it was 4 nM; at CYP2C19 it was greater than 10000 nM; at CYP2C9 it was greater than 10000 nM; at CYP2D6, greater than 10000 nM.

As for `CC(Cn1cncc1CN1CCN(c2nc3ccccc3o2)CC1)C(F)(F)F` (centres unmarked) [Compound 36, 2-(4-((1-(3,3,3-trifluoro-2-methylpropyl)-1H-imidazol-5-yl)methyl)piperazin-1-yl)benzo[d]oxazole], the 50% inhibitory concentration (IC50) at CYP1A2 is greater than 10000 nM; on CYP3A4, 45 nM; at CYP2C19 it was 4260 nM; at CYP2C9, 6980 nM; at CYP2D6, 1720 nM.

For `Fc1ccc(CCn2cncc2CN2CCN(c3nc4ccccc4o3)CC2)cc1` [Compound 37, 2-(4-((1-(4-fluorophenethyl)-1H-imidazol-5-yl)methyl)piperazin-1-yl)benzo[d]oxazole], the IC50 is greater than 10000 nM at CYP1A2; 8 nM on CYP3A4; 5380 nM on CYP2C19; 4360 nM on CYP2C9; 1410 nM on CYP2D6.

Turning to `COc1ccc2nc(N3CCN(Cc4cncn4[C@H](C)c4ccc(C#N)cc4)CC3)sc2c1` [Compound 38, (R)-4-(1-(5-((4-(6-methoxybenzo[d]thiazol-2-yl)piperazin-1-yl)methyl)-1H-imidazol-1-yl)ethyl)benzonitrile], the IC50 on CYP1A2 is greater than 10000 nM; on CYP3A4, 31 nM; on CYP2C19, 4720 nM; on CYP2C9 it was 6470 nM; on CYP2D6 it was 3690 nM.

For the molecule `C[C@H](c1ccc(C#N)cc1)n1cncc1CN1CCN(c2nc3ccccc3[nH]2)CC1` [Compound 39, (R)-4-(1-(5-((4-(1H-benzo[d]imidazol-2-yl)piperazin-1-yl)methyl)-1H-imidazol-1-yl)ethyl)benzonitrile], the IC50 at CYP1A2 is greater than 10000 nM; at CYP3A4 it was 23 nM; on CYP2C19, greater than 10000 nM; on CYP2C9, greater than 10000 nM; on CYP2D6, 1580 nM.

On to `CCS(=O)(=O)c1cnc(N2CCN(Cc3cncn3[C@H](C)Cc3ccc(F)cc3)CC2)s1` [Compound 40, (R)-5-(ethylsulfonyl)-2-(4-((1-(1-(4-fluorophenyl)propan-2-yl)-1H-imidazol-5-yl)methyl)piperazin-1-yl)thiazole], for which the IC50 at CYP1A2 is greater than 10000 nM; on CYP3A4, 27 nM; at CYP2C19, greater than 10000 nM; at CYP2C9, greater than 10000 nM; on CYP2D6, 5260 nM.

Turning to `CCS(=O)(=O)CCc1cnc(N2CCN(Cc3cncn3[C@H](C)Cc3ccc(F)cc3)CC2)s1` [Compound 41, (R)-5-(2-(ethylsulfonyl)ethyl)-2-(4-((1-(1-(4-fluorophenyl)propan-2-yl)-1H-imidazol-5-yl)methyl)piperazin-1-yl)thiazole], the IC50 on CYP1A2 was greater than 10000 nM; at CYP3A4, 30 nM; at CYP2C19 it was 2230 nM; on CYP2C9, 2700 nM; on CYP2D6, 2380 nM.

For `CCS(=O)(=O)CCc1cnc(N2CCN(Cc3cncn3[C@H](C)c3ccc(Cl)cc3)CC2)s1` [Compound 42, (R)-2-(4-((1-(1-(4-chloro-phenyl)ethyl)-1H-imidazol-5-yl)methyl)piperazin-1-yl)-5-(2-(ethyl-sulfonyl)ethyl)thiazole], the half-inhibitory concentration (IC50) on CYP1A2 is greater than 10000 nM; on CYP3A4 it was 22 nM; at CYP2C19, 2400 nM; at CYP2C9, greater than 10000 nM; at CYP2D6, 1660 nM.

In the case of `CCS(=O)(=O)CCc1cnc(N2CCN(Cc3cncn3[C@H](C)c3ccc(F)cc3)CC2)s1` [Compound 43, (R)-2-(4-((1-(1-(4-fluoro-phenyl)ethyl)-1H-imidazol-5-yl)methyl)piperazin-1-yl)-5-(2-(ethyl-sulfonyl)ethyl) thiazole], the IC50 on CYP1A2 was greater than 10000 nM; on CYP3A4, 50 nM; on CYP2C19, 4010 nM; at CYP2C9, greater than 10000 nM; at CYP2D6 it was 2950 nM.

For the molecule `C[C@H](c1ccc(C#N)cc1)n1cncc1CN1CCN(c2ccccc2)C(C(=O)NC(C)(C)C)C1` (stereo partly drawn) [Compound 44, N-(tert-butyl)-4-((1-((R)-1-(4-cyanophenyl)ethyl)-1H-imidazol-5-yl)methyl)-1-phenylpiperazine-2-carboxamide], the IC50 on CYP1A2 is greater than 10000 nM; on CYP3A4, 29 nM; at CYP2C19, 5840 nM; at CYP2C9 it was 5090 nM; at CYP2D6, greater than 10000 nM.

Turning to `C[C@H](c1ccc(C#N)cc1)n1cncc1CN1CCN(c2ccccc2)C(C(=O)N2CCOCC2)C1` (stereo partly drawn) [Compound 46, 4-((1R)-1-(5-((3-(morpholine-4-carbonyl)-4-phenylpiperazin-1-yl)methyl)-1H-imidazol-1-yl)ethyl) benzonitrile], the IC50 on CYP1A2 is greater than 10000 nM; on CYP3A4, 46 nM; on CYP2C19 it was greater than 10000 nM; on CYP2C9, greater than 10000 nM; on CYP2D6, greater than 10000 nM.

These data come from US10745377B2, “Piperidine or piperazine linked imidazole and triazole derivatives and methods of use” (MERCK SHARP & DOHME CORP., priority 2013, dated 2020).
